molecular target: T1, ER (Homo sapiens, UniProt P03372); assay: ER degradation activity, in-cell western blot analysis in T47D cells; type: cell-based; conditions: 16 hours, Table A does not say which cell line (T47D or MCF7), read-out: Potency (DC50)
T1 construct: host or cells: T47D and MCF7 human breast cancer cells
T1 sequence (P03372 1-595): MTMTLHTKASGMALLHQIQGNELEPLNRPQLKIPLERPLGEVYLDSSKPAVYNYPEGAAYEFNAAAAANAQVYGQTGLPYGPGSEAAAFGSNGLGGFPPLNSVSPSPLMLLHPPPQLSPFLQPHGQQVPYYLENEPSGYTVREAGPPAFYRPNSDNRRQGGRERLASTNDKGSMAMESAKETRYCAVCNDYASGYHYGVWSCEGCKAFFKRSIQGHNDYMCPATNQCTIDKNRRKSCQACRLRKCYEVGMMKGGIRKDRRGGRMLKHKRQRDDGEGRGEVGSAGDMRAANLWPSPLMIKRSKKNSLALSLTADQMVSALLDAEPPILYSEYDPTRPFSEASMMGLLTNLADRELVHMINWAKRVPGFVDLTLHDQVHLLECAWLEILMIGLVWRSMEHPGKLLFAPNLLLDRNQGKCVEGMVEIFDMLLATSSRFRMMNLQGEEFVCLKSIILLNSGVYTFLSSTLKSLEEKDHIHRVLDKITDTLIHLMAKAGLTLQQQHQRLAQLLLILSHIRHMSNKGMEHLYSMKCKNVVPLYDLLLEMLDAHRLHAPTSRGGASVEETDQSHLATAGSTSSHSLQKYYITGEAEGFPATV
How it was run: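 Read-out is near-infrared fluorescence from an in-cell western, expressed as ER percentage relative to untreated and DMSO controls taken as 100%. T47D breast cancer cells received compound for 16 h in 0.5% DMSO.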

| Structure (SMILES) | DC50 [nM] |
| --- | --- |
| O=C1CCC(N2C(=O)c3cc4c(cc3C2=O)CCN(C(=O)CN2CCC3(CC2)CCN(c2ccc([C@@H]5c6ccc(O)cc6CC[C@@H]5c5ccccc5)cc2)CC3)CC4)C(=O)N1 (stereo partly drawn) [E 167, 2-(2,6-dioxopiperidin-3-yl)-7-(2-(9-(4-((1R,2S)-6-hydroxy-2-phenyl-1,2,3,4-tetrahydronaphthalen-1-yl)phenyl)-3,9-diazaspiro[5.5]undecan-3-yl)acetyl)-6,7,8,9-tetrahydroazepino[4,5-f]isoindole-1,3(2H,5H)-dione] | > 100 |
| O=C1CCC(N2C(=O)c3cc4c(cc3C2=O)CN(CC(=O)N2CC3(CCN(c5ccc(C(=C(CCCl)c6ccccc6)c6ccc(O)cc6)cc5)CC3)C2)C4)C(=O)N1 (stereo not shown) [E 187, 6-(2-(7-(4-(4-chloro-1-(4-hydroxyphenyl)-2-phenylbut-1-en-1-yl)phenyl)-2,7-diazaspiro[3.5]nonan-2-yl)-2-oxoethyl)-2-(2,6-dioxopiperidin-3-yl)-6,7-dihydropyrrolo[3,4-f]isoindole-1,3(2H,5H)-dione] | 10 to 100 |
| C[C@@H]1Cc2c([nH]c3ccccc23)[C@@H](c2c(F)cc(N3CCCC(CN4CCC(N5Cc6cc7c(cc6C5)C(=O)N(C5CCC(=O)NC5=O)C7=O)CC4)C3)cc2F)N1CC(F)F (stereo partly drawn) [E 59, 6-(1-((1-(4-((1R,3R)-2-(2,2-difluoroethyl)-3-methyl-2,3,4,9-tetrahydro-1H-pyrido[3,4-b]indol-1-yl)-3,5-difluorophenyl)piperidin-3-yl)methyl)piperidin-4-yl)-2-(2,6-dioxopiperidin-3-yl)-6,7-dihydropyrrolo[3,4-f]isoindole-1,3(2H,5H)-dione] | 10 to 100 |
| O=C1CCC(N2C(=O)c3cc4c(cc3C2=O)CN(c2ccc(CN3CC(Oc5ccc([C@@H]6c7ccc(O)cc7CC[C@@H]6c6ccccc6)cc5)C3)cn2)C4)C(=O)N1 (stereo partly drawn) [E328, 2-(2,6-dioxopiperidin-3-yl)-6-(5-((3-(4-((1R,2S)-6-hydroxy-2-phenyl-1,2,3,4-tetrahydronaphthalen-1-yl)phenoxy)azetidin-1-yl)methyl)pyridin-2-yl)-6,7-dihydropyrrolo[3,4-f]isoindole-1,3(2H,5H)-dione] | > 100 |
| O=C1CCC(N2C(=O)c3cc4c(cc3C2=O)CN(CC2CCC(N3CCN(c5ccc([C@@H]6c7ccc(O)cc7CC[C@@H]6c6ccccc6)cc5)CC3)CC2)C4)C(=O)N1 (stereo partly drawn) [E 299, 2-(2,6-dioxopiperidin-3-yl)-6-((4-(4-(4-((1R,2S)-6-hydroxy-2-phenyl-1,2,3,4-tetrahydronaphthalen-1-yl)phenyl)piperazin-1-yl)cyclohexyl)methyl)-6,7-dihydropyrrolo[3,4-f]isoindole-1,3(2H,5H)-dione] | 10 to 100 |

The next lines start with the values.

| DC50 [nM] | Structure (SMILES) |
| --- | --- |
| > 100 | O=C1CCC(N2C(=O)c3cc4c(cc3C2=O)CN(CC2(F)CCN(CC3CCN(c5ccc([C@@H]6c7ccc(O)cc7CC[C@@H]6c6ccccc6)cc5)CC3)CC2)C4)C(=O)N1 (stereo partly drawn) [E 211, 2-(2,6-dioxopiperidin-3-yl)-6-((4-fluoro-1-((1-(4-((1R,2S)-6-hydroxy-2-phenyl-1,2,3,4-tetrahydronaphthalen-1-yl)phenyl)piperidin-4-yl)methyl)piperidin-4-yl)methyl)-6,7-dihydropyrrolo[3,4-f]isoindole-1,3(2H,5H)-dione] |
| 10 to 100 | O=C1CCC(N2C(=O)c3cc4c(cc3C2=O)CN(C(=O)CN2CCC3(CC2)CCN(c2ccc([C@@H]5c6ccc(O)cc6CC[C@@H]5c5ccccc5)cc2)CC3)C4)C(=O)N1 (mixture of isomers) [E 126, Rac-2-(2,6-dioxopiperidin-3-yl)-6-(2-(9-(4-((1R,2S)-6-hydroxy-2-phenyl-1,2,3,4-tetrahydronaphthalen-1-yl)phenyl)-3,9-diazaspiro[5.5]undecan-3-yl)acetyl)-6,7-dihydropyrrolo[3,4-f]isoindole-1,3(2H,5H)-dione] |
| > 100 | O=C1CCC(N2C(=O)c3cc4c(cc3C2=O)CCN(CC(=O)N2CCC3(CC2)CCN(c2ccc([C@@H]5c6ccc(O)cc6CC[C@@H]5c5ccc(F)cc5)cc2)CC3)CC4)C(=O)N1 (stereo partly drawn) [E 183, 2-(2,6-dioxopiperidin-3-yl)-7-(2-(9-(4-((1R,2S)-2-(4-fluorophenyl)-6-hydroxy-1,2,3,4-tetrahydronaphthalen-1-yl)phenyl)-3,9-diazaspiro[5.5]undecan-3-yl)-2-oxoethyl)-6,7,8,9-tetrahydroazepino[4,5-f]isoindole-1,3(2H,5H)-dione] |
| 10 to 100 | O=C1CCC(N2C(=O)c3cc4c(cc3C2=O)CN(CC(=O)N2CCC3(CC2)CN(c2ccc([C@@H]5c6ccc(O)cc6CC[C@@H]5c5ccc(F)cc5Cl)cc2)C3)C4)C(=O)N1 (mixture of isomers) [E 11, rac-6-(2-(2-(4-((1R,2S)-2-(2-chloro-4-fluorophenyl)-6-hydroxy-1,2,3,4-tetrahydronaphthalen-1-yl)phenyl)-2,7-diazaspiro[3.5]nonan-7-yl)-2-oxoethyl)-2-(2,6-dioxopiperidin-3-yl)-6,7-dihydropyrrolo[3,4-f]isoindole-1,3(2H,5H)-dione] |
| > 100 | CN(C1CCN(c2ccc([C@@H]3c4ccc(O)cc4CC[C@@H]3c3ccccc3)cc2)CC1)C1CC(C(=O)N2Cc3cc4c(cc3C2)C(=O)N(C2CCC(=O)NC2=O)C4=O)C1 (stereo partly drawn) [E 362, 2-(2,6-dioxopiperidin-3-yl)-6-(3-((1-(4-((1R,2S)-6-hydroxy-2-phenyl-1,2,3,4-tetrahydronaphthalen-1-yl)phenyl)piperidin-4-yl)(methyl)amino)cyclobutane-1-carbonyl)-6,7-dihydropyrrolo[3,4-f]isoindole-1,3(2H,5H)-dione] |
| > 100 | O=C1CCC(N2C(=O)c3cc4c(cc3C2=O)CN(Cc2cnc(N3CC(Oc5ccc([C@@H]6c7ccc(O)cc7CC[C@@H]6c6ccccc6)cc5)C3)cn2)C4)C(=O)N1 (stereo partly drawn) [E 342, 2-(2,6-dioxopiperidin-3-yl)-6-((5-(3-(4-((1R,2S)-6-hydroxy-2-phenyl-1,2,3,4-tetrahydronaphthalen-1-yl)phenoxy)azetidin-1-yl)pyrazin-2-yl)methyl)-6,7-dihydropyrrolo[3,4-f]isoindole-1,3(2H,5H)-dione] |
| > 100 | O=C1CCC(N2C(=O)c3cc4c(cc3C2=O)CN(C2CC(C(=O)N3CCCC(Oc5ccc([C@@H]6c7ccc(O)cc7CC[C@@H]6c6ccccc6)cc5)C3)C2)C4)C(=O)N1 (mixture of isomers) [E 22, Rac-2-(2,6-dioxopiperidin-3-yl)-6-(3-(3-(4-((1R,2S)-6-hydroxy-2-phenyl-1,2,3,4-tetrahydronaphthalen-1-yl)phenoxy)piperidine-1-carbonyl)cyclobutyl)-6,7-dihydropyrrolo[3,4-f]isoindole-1,3(2H,5H)-dione] |

same assay, conditions: compounds 16 hours, Table A does not say whether T47D or MCF7, read-out: Potency (DC50)

| Structure (SMILES) | DC50 [nM] |
| --- | --- |
| O=C1CCC(N2C(=O)c3cc4c(cc3C2=O)CN(CC(=O)N2CCC3(CC2)CCN(c2ccc([C@H]5c6ccc(O)cc6CC[C@H]5c5ccccc5)cc2)CC3)C4)C(=O)N1 (stereo partly drawn) [E 437, 2-(2,6-dioxopiperidin-3-yl)-6-(2-(9-(4-((1S,2R)-6-hydroxy-2-phenyl-1,2,3,4-tetrahydronaphthalen-1-yl)phenyl)-3,9-diazaspiro[5.5]undecan-3-yl)-2-oxoethyl)-6,7-dihydropyrrolo[3,4-f]isoindole-1,3(2H,5H)-dione] | > 100 |
| O=C1CCC(N2C(=O)c3cc4c(cc3C2=O)CN(CC(=O)N2CCC3(CC2)CCN(c2ccc([C@@H]5c6ccc(-c7cn[nH]c7)cc6CC[C@@H]5c5ccccc5)cc2)CC3)C4)C(=O)N1 (stereo partly drawn) [E 510, 2-(2,6-dioxopiperidin-3-yl)-6-(2-oxo-2-(9-(4-((1R,2S)-2-phenyl-6-(1H-pyrazol-4-yl)-1,2,3,4-tetrahydronaphthalen-1-yl)phenyl)-3,9-diazaspiro[5.5]undecan-3-yl)ethyl)-6,7-dihydropyrrolo[3,4-f]isoindole-1,3(2H,5H)-dione] | > 100 |

More lines, now with the values ahead:

| DC50 [nM] | Structure (SMILES) |
| --- | --- |
| < 10 | COc1c2c(cc3c1CN(C1CCC(=O)NC1=O)C3=O)CN(CC(=O)N1CCC3(CC1)CCN(c1cc(F)c([C@@H]4c5[nH]c6ccccc6c5C[C@@H](C)N4CC(F)F)c(F)c1)CC3)C2 (stereo partly drawn) [E 444, 3-(6-(2-(9-(4-((1R,3R)-2-(2,2-difluoroethyl)-3-methyl-2,3,4,9-tetrahydro-1H-pyrido[3,4-b]indol-1-yl)-3,5-difluorophenyl)-3,9-diazaspiro[5.5]undecan-3-yl)-2-oxoethyl)-4-methoxy-1-oxo-3,5,6,7-tetrahydropyrrolo[3,4-f]isoindol-2(1H)-yl)piperidine-2,6-dione] |
| < 10 | COc1c2c(cc3c1CN(C1CCC(=O)NC1=O)C3=O)CN(CC(=O)N1CCC3(CC1)CCN(c1cc(F)c([C@@H]4c5ccc(O)cc5C[C@@H](C)N4CC(F)F)c(F)c1)CC3)C2 (stereo partly drawn) [E 461, 3-(6-(2-(9-(4-((1S,3R)-2-(2,2-difluoroethyl)-6-hydroxy-3-methyl-1,2,3,4-tetrahydroisoquinolin-1-yl)-3,5-difluorophenyl)-3,9-diazaspiro[5.5]undecan-3-yl)-2-oxoethyl)-4-methoxy-1-oxo-3,5,6,7-tetrahydropyrrolo[3,4-f]isoindol-2(1H)-yl)piperidine-2,6-dione] |

Reference: US20240190880A1 (THE REGENTS OF THE UNIVERSITY OF MICHIGAN, priority 2021, published 2024)
